These results are taken from ChEMBL document CHEMBL1125955, “Synthesis of new disoxaril analogues with potent and selective anti-human rhinovirus 14 activity” (1991).

Values after ≈ are worked out from the molar mass of the structure shown.

Assay [1] in a line: Selectivity index was determined as ratio of maximum testable level to that of minimum inhibitory concentration. Format: functional.
Assay [2] deals with Vero. Nature of the assay: Minimum inhibitory concentration (antiviral activity) was screened in Vero cells against polio type 1 (Sabin strain, Sb-1). Format: functional. The following applies: Chlorocebus sabaeus.
Assay [3] deals with Vero. Nature of the assay: Maximum testable level was evaluated in Vero cells that causes no apparent effects on cell monolayers. Format: functional, Chlorocebus sabaeus.
The subject of assay [4] is HeLa. Nature of the assay: Minimum inhibitory concentration (antiviral activity) was evaluated n HeLa cells against human rhino virus. It counts as functional.
Assay [5] concerns Vero. Nature of the assay: Minimum inhibitory concentration (antiviral activity) was screened in Vero cells against Coxsackie B1 (Coxs). It counts as functional. The note with it: Chlorocebus sabaeus.
Assay [6] has as its system HeLa. Nature of the assay: Maximum testable level (antiviral activity) was evaluated in HeLa cells against human rhino virus. It counts as functional.
For assay [7], the system named is Vero. Nature of the assay: Minimum inhibitory concentration (antiviral activity) was screened in Vero cells against herpes simplex virus type 1 (HSV-1). It counts as functional. The note with it: Chlorocebus sabaeus.
Assay [8] deals with Vero. Nature of the assay: Minimum inhibitory concentration (antiviral activity) was screened in Vero cells against vaccinia virus (VV). It counts as functional. The following applies: Chlorocebus sabaeus.
For assay [9], the system named is Vero. Briefly: Minimum inhibitory concentration (antiviral activity) was screened in Vero cells against Vesicular Stomatitis virus (VSV). It counts as functional. The note with it: Chlorocebus sabaeus.
Assay [10] in a line: Selectivity index was the ratio of maximum testable level to that of minimum inhibitory concentration in human rhino virus. Format: functional.

Turning to `O=C(CCCCOc1ccc(C2=NCCO2)cc1)c1ccc(Cl)s1`, the Selectivity index in assay [1] was over 5500. The MIC in assay [2] is 200 µM (≈ 72.8 µg/mL); in assay [4], 0.1 µM (≈ 0.0364 µg/mL); in [5] it was over 275 µM; in assay [7], over 275 µM. Moreover, the MTL in [3] is over 275 µM; in [6] it was over 550 µM.

`Cn1cccc1C(=O)CCCCOc1ccc(C2=NCCO2)cc1`: in [1], the Selectivity index is over 406. Also, the MIC was 300 µM (≈ 97.9 µg/mL) in assay [2], 1.5 µM (≈ 0.49 µg/mL) in [4], over 300 µM in assay [5] and over 300 µM in assay [7]. Moreover, the results for the MTL in [3] and in [6] were over 300 µM and over 610 µM, respectively.

As to `CCOC(=O)c1ccc(OCCCCC(=O)c2ccc(C)o2)cc1`, the MIC was 30 µM (≈ 9.91 µg/mL) in assay [8]; over 120 µM in assay [9]; 15 µM (≈ 4.96 µg/mL) in assay [2]; 2.4 µM (≈ 0.793 µg/mL) in [4]; 60 µM (≈ 19.8 µg/mL) in assay [5]; 75 µM (≈ 24.8 µg/mL) in assay [7]. Besides, the results for the MTL in assay [3] and in assay [6] were over 120 µM and 65 µM, respectively.

The compound `Cc1cc(CCCCCCCOc2ccc(C3=NCCO3)cc2)on1` [DISOXARIL] yielded an MIC in [4] of 0.4 µM (≈ 0.137 µg/mL). The Selectivity index in assay [10] came out at 45. This compound also returned an MTL in assay [6] of over 18 µM.

As to `Cn1cc(C(=O)CCCCOc2ccc(C3=NCCO3)cc2)cc1C=O`, the MTL is over 280 µM in assay [3] and over 565 µM in assay [6]. Moreover, the MIC was 20 µM (≈ 7.09 µg/mL) in assay [4], over 280 µM in assay [5] and over 280 µM in [7].

As to `CCOC(=O)c1ccc(OCCCCC(=O)c2ccc(Cl)s2)cc1`, the MIC in assay [2] is 80 µM (≈ 29.3 µg/mL); in [4], 0.4 µM (≈ 0.147 µg/mL); in [5] it was over 190 µM; in assay [7], over 190 µM. Moreover, the results for the MTL in assay [3] and in assay [6] were over 190 µM and over 545 µM, respectively. Moreover, the Selectivity index in [10] is reported as over 1362.

Turning to `O=C(O)c1ccc(OCCCCC(=O)c2ccc(Cl)s2)cc1`, the MIC was 30 µM (≈ 10.2 µg/mL) in assay [2], over 50 µM in [4], over 170 µM in assay [5] and over 170 µM in assay [7]. Further, the MTL in assay [3] was over 170 µM; in assay [6], over 590 µM.

`CCOC(=O)c1ccc(OCCCCC(=O)c2cc(C=O)n(C)c2)cc1`: the results for the MIC in assay [2], in assay [4] and in assay [7] were 5 µM (≈ 1.79 µg/mL), 1.4 µM (≈ 0.5 µg/mL) and over 55 µM, respectively. Also, the MTL in assay [3] was 55 µM; in [6], over 20 µM.

For `O=C(CCCCOc1ccc(C2=NCCO2)cc1)c1ccc[nH]1`, the MIC in assay [2] is 60 µM (≈ 18.7 µg/mL); in [4] it was 7.5 µM (≈ 2.34 µg/mL); in [5], over 175 µM; in assay [7], over 175 µM. In addition, the MTL in [3] was over 175 µM; in [6], over 640 µM.

On to `O=C(O)c1ccc(OCCCCCc2ccc(Cl)s2)cc1`, for which the MIC in [2] was 20 µM (≈ 6.5 µg/mL); in assay [4], over 20 µM; in assay [5], over 60 µM; in [7] it was over 60 µM. The MTL was 60 µM in assay [3] and 20 µM in assay [6].

On to `Clc1ccc(CCCCCOc2ccc(C3=NCCO3)cc2)s1`, for which the MIC was 25 µM (≈ 8.75 µg/mL) in [2], 2.8 µM (≈ 0.98 µg/mL) in assay [4], over 30 µM in assay [5] and over 30 µM in assay [7]. Moreover, the MTL in [3] is 30 µM; in [6] it was over 60 µM.

On to `Cn1cc(C(=O)CCCCOc2ccc(C(=O)O)cc2)cc1C=O`, for which the MIC is 380 µM (≈ 125 µg/mL) in [2], over 50 µM in [4], over 380 µM in assay [5] and over 380 µM in [7]. Besides, the MTL in [3] is 380 µM; in [6], over 610 µM.
